From ChEMBL document CHEMBL3217424, “Total synthesis and anti-cholinesterase activity of marine-derived bis-indole alkaloid fascaplysin” (Medchemcomm, 2012)
Active and inactive are the calls of the source. The calls are words filed in the database; no cut-off is given here.

Legend:
[1] = biological target: Acetylcholinesterase (Electrophorus electricus) (UniProt O42275); assay: Inhibition of Electrophorus electricus AChE using acetylthiocholine iodide as substrate at 10 uM after 30 mins by Ellman's method
[2] = biological target: Acetylcholinesterase (Homo sapiens) (UniProt P22303); assay: Ratio of physostigmine IC50 to compound IC50 for acetylcholinesterase (unknown origin)
Cholinesterase [3] = biological target: T1, Cholinesterase (Equus caballus, UniProt P81908); assay: Non-competitive inhibition of equine serum BuChE using S-butyrylthiocholine iodide as substrate by Lineweaver-Burk reciprocal plot analysis
Acetylcholinesterase [4] = biological target: T2, Acetylcholinesterase (Electrophorus electricus, UniProt O42275); assay: Inhibition of Electrophorus electricus AChE using acetylthiocholine iodide as substrate after 30 mins by Ellman's method
[5] = biological target: Cyclin-dependent kinase 1/cyclin B1 (Homo sapiens, UniProt P06493); assay: Inhibition of CDK1/cyclin-B (unknown origin); assay type: protein-complex assay
CDK6/cyclin D2 = CDK6/cyclin D2 (Homo sapiens, UniProt P30279+Q00534); assay: Inhibition of CDK6/cyclin-D2 (unknown origin); assay type: protein-complex assay
[6] = biological target: Cyclin-dependent kinase 5/CDK5 activator 1 (Homo sapiens, UniProt Q00535); assay: Inhibition of CDK5/p-35 (unknown origin); assay type: protein-complex assay
CDK4/Cyclin D3 = CDK4/Cyclin D3 (Homo sapiens, UniProt P11802); assay: Inhibition of CDK4/cyclin-D3 (unknown origin); assay type: protein-complex assay
Cholinesterase [7] = biological target: T1, Cholinesterase; assay: Inhibition of equine serum BuChE using S-butyrylthiocholine iodide as substrate after 30 mins by Ellman's method
[8] = biological target: Cyclin-dependent kinase 4/cyclin D2 (Homo sapiens, UniProt P11802+P30279); assay: Inhibition of CDK4/cyclin-D2 (unknown origin); assay type: protein-complex assay
[9] = biological target: Cyclin-dependent kinase 2/cyclin E1 (Homo sapiens, UniProt P24941); assay: Inhibition of CDK2/cyclin-E (unknown origin); assay type: protein-complex assay
Acetylcholinesterase [10] = biological target: T2, Acetylcholinesterase; assay: Non-competitive inhibition of Electrophorus electricus AChE using acetylthiocholine iodide as substrate by Lineweaver-Burk reciprocal plot analysis

T1 sequence (P81908 whole entry): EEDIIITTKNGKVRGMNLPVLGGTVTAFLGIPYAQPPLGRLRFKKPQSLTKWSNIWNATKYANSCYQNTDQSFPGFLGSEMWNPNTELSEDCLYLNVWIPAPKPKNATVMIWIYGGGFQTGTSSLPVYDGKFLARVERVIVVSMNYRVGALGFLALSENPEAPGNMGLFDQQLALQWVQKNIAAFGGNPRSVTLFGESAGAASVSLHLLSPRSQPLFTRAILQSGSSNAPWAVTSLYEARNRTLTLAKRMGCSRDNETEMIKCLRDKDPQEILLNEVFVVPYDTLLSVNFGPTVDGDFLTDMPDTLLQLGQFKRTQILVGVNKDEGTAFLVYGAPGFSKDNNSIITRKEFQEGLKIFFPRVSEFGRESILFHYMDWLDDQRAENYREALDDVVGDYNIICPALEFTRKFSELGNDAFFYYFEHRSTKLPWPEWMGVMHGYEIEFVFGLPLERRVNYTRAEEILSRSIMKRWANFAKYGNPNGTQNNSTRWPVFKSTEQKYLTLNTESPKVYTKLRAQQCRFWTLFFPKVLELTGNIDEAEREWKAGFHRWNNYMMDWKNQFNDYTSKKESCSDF
Chain of Acetylcholinesterase (Electrophorus electricus) (O42275 24-633 limits assumed): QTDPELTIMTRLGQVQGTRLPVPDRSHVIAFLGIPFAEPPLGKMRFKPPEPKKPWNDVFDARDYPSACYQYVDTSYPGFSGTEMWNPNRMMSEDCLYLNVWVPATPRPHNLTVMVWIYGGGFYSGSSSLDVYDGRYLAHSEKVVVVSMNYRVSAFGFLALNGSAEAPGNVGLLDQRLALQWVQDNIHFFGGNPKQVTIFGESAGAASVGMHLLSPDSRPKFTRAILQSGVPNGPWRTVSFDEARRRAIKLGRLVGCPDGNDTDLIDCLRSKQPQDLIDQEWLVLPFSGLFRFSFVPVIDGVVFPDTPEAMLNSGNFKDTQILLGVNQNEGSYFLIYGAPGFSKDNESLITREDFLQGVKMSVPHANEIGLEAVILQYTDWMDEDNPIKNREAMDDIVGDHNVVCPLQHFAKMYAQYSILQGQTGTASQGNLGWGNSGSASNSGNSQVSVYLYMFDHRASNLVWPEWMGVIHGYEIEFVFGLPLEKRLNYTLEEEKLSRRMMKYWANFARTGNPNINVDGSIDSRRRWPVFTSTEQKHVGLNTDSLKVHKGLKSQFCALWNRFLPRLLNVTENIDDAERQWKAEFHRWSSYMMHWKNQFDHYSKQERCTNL
T2 sequence (O42275 whole entry): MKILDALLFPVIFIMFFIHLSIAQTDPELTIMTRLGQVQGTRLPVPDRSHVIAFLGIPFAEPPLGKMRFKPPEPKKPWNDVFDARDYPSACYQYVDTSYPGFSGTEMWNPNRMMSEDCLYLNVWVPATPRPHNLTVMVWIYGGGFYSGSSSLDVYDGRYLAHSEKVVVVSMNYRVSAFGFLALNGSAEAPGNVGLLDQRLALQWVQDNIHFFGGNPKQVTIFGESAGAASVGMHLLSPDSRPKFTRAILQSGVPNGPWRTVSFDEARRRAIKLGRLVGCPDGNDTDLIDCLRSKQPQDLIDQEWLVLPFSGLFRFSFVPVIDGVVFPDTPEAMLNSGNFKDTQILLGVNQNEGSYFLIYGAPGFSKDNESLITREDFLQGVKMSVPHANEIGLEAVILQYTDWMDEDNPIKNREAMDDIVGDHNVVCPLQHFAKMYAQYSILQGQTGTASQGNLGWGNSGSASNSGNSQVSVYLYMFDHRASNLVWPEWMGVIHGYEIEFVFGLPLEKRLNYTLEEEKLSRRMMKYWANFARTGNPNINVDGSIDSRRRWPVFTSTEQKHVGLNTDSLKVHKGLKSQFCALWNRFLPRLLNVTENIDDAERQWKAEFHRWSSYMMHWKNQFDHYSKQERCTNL
Chain of CDK6/cyclin D2 (Q00534 whole entry): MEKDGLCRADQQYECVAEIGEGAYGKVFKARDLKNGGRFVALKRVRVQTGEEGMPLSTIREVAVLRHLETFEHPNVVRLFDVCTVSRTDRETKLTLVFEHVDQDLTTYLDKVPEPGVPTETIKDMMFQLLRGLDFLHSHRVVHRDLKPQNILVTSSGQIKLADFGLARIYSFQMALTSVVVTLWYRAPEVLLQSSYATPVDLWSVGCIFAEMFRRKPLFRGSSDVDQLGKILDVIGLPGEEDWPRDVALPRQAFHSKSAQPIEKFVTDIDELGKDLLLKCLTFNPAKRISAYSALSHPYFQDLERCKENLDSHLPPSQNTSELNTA
Chain of CDK6/cyclin D2 (P30279 whole entry): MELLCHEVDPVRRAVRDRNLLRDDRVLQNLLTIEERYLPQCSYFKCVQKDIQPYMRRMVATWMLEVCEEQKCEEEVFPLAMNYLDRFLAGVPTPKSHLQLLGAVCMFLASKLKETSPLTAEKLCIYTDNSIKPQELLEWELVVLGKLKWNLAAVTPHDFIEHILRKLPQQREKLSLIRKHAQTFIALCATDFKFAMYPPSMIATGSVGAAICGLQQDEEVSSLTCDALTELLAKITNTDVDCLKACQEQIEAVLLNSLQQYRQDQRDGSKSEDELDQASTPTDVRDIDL
Chain of Acetylcholinesterase (Homo sapiens) (P22303 whole entry): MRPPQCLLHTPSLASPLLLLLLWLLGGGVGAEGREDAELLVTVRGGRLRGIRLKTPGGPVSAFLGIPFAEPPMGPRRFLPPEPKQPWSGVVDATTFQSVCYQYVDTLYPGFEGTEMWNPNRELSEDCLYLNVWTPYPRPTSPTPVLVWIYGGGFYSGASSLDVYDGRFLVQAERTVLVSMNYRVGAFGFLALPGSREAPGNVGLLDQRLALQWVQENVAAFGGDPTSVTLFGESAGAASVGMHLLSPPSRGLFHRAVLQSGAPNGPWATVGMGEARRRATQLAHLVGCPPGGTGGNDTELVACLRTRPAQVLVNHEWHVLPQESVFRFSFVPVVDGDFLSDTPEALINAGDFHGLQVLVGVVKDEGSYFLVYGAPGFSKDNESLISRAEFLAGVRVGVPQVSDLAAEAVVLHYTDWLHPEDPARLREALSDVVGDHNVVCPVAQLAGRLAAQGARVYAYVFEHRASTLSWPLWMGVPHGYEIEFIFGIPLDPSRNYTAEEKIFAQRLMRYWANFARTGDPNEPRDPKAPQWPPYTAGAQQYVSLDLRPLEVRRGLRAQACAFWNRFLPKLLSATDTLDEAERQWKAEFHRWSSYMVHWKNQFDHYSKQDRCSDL
Chain of CDK4/Cyclin D3 (P11802 whole entry): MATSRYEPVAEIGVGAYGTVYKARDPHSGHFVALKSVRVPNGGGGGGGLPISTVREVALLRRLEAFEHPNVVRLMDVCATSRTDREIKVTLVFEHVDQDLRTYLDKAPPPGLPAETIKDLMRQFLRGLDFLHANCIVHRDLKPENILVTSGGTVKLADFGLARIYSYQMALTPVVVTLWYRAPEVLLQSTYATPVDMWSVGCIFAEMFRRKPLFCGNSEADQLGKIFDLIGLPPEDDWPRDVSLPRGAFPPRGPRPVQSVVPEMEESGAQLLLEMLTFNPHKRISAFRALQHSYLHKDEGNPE
Chain of CDK4/Cyclin D3 (P30281 whole entry, further chain): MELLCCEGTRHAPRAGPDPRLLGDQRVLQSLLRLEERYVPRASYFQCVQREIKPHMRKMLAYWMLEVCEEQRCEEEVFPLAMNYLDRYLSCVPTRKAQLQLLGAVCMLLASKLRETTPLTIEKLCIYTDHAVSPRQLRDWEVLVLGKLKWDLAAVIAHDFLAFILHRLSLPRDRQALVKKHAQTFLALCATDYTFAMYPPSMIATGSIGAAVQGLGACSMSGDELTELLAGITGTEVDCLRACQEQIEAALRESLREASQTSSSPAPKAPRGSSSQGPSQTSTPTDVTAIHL
Chain of Cyclin-dependent kinase 4/cyclin D2 (P11802 whole entry): as the sequence (P11802 whole entry) above
Chain of Cyclin-dependent kinase 4/cyclin D2 (P30279 whole entry): as the sequence (P30279 whole entry) above
Chain of Cyclin-dependent kinase 1/cyclin B1 (P06493 whole entry): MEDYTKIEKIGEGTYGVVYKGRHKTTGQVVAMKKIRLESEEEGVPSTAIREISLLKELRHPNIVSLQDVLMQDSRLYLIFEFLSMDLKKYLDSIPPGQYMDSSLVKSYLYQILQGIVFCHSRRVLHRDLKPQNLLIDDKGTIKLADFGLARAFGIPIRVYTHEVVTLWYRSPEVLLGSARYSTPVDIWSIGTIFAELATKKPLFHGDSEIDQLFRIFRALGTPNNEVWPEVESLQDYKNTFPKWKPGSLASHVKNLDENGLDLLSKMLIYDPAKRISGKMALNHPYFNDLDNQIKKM
Chain of Cyclin-dependent kinase 1/cyclin B1 (P14635 whole entry, further chain): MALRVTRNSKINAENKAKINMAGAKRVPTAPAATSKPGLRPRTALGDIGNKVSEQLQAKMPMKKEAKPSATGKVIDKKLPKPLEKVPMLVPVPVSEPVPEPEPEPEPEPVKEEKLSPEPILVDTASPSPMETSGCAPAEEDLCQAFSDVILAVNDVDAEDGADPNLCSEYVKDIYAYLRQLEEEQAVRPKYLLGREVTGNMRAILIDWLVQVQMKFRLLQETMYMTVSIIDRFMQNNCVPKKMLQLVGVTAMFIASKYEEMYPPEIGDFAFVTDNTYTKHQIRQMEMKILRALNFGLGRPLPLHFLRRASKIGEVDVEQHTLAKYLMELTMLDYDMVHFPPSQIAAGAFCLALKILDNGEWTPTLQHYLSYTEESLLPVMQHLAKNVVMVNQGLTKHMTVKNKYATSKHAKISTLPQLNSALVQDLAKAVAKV

| Structure (SMILES) | inhibition [1] | Ratio IC50 [2] | Ki (Cholinesterase [3]) [µM] | IC50 (Acetylcholinesterase [4]) [µM] | IC50 [5] [µM] | IC50 (CDK6/cyclin D2) [µM] | IC50 [6] [µM] | IC50 (CDK4/Cyclin D3) [µM] | IC50 (Cholinesterase [7]) [µM] | IC50 [8] [µM] | IC50 [9] [µM] | Ki (Acetylcholinesterase [10]) [µM] |
| --- | --- | --- | --- | --- | --- | --- | --- | --- | --- | --- | --- | --- |
| O=C(c1ccccc1Cl)c1nccc2c1[nH]c1ccccc12 | inactive |  |  |  |  |  |  |  |  |  |  |  |
| COC(=O)C1=CO[C@@H](C)[C@H]2C[n+]3ccc4c([nH]c5ccccc54)c3C[C@H]12 |  | 10 |  |  |  |  |  |  |  |  |  |  |
| O=C1c2ccccc2-[n+]2ccc3c([nH]c4ccccc43)c21 [FASCAPLYSIN] | 86% |  | 48.5 | 1.49 | > 100 | > 50 | 20 | > 100 | 90.5 | > 100 | > 50 | 2.28 |
